Data reported in publication PMC10303166, “Design, Synthesis, Biological Evaluation, and Molecular Docking Study of 4,6-Dimethyl-5-aryl/alkyl-2-[2-hydroxy-3-(4-substituted-1-piperazinyl)propyl]pyrrolo[3,4-c]pyrrole-1,3(2H,5H)-diones as Anti-Inflammatory Agents with Dual Inhibition of COX and LOX” (Pharmaceuticals, 2023).
Where two headings read alike, the source gives them in different places.

Key:
COX-2 = target: T1, COX-2 (Homo sapiens, UniProt P35354); assay: Colorimetric cyclooxygenase inhibition assay (COX-2); type: biochemical; details: for IC50: incubation for 2 min with the tested compounds at a concentration of 100 µM, mean (SD); for COX Selectivity Ratio IC50(COX-2)/IC50(COX-1): ratio COX-2 over COX-1
T1 sequence (P35354 18-604): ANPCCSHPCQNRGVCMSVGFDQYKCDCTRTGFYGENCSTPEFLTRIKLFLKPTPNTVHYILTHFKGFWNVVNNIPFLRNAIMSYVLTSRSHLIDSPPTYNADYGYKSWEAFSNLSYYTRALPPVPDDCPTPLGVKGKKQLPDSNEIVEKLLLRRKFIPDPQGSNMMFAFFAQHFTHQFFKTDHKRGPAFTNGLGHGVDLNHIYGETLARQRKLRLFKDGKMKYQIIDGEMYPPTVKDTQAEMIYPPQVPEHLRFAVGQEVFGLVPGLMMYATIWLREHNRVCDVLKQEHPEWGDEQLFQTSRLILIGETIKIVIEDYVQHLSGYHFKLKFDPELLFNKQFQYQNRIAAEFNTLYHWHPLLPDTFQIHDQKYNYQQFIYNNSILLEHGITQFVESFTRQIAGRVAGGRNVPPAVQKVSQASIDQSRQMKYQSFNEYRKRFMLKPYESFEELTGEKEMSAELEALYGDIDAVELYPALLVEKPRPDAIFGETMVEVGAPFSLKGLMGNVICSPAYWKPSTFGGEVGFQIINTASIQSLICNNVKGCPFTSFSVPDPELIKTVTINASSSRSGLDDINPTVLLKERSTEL
Procedure: COX peroxidase activity was evaluated by colorimetric evaluation of the occurrence of the oxidized form of N, N, N′, N′-tetramethyl-p-phenylenediamine (TMPD). The reduction of PGG2 (prostaglandin G2) to PGH2 is due to the oxidation of TMPD. […] The tested compounds wells included 110 μL Assay Buffer, 10 μL Hemin, and 40 μL solution of tested compounds, which was dissolved in DMSO in a final concentration of 10 mM. These samples were performed in three replicates for every compound. […] Subsequently, 20 μL substrate, i.e., arachidonic acid, was added. The entire plate was shaken for 5 min. The result is a change in color measured at 590 nm with a Varioskan LUX microplate reader (Thermo Scientific, Waltham, MA, USA).

NHDF cells = assay: SRB viability assay on NHDF cells; type: cell-based; details: Homo sapiens, 48 h incubation with NHDF cells, tested 10-100 µM, mean (SD)
Procedure: The NHDF (CC-2511) was purchased from Lonza, Basel. This line was derived from human dermal fibroblasts grown in 5% CO2 with 95% humidity at 37 °C. Cells were cultured with 10% FBS and 2 mM L-glutamine, 1.25 μg/mL Amphotericin B, and 100 μg/mL Gentamicin. Twice a week, the morphology and confluence were evaluated under microscopy. The confluence was above 70%, and the NHDF cells were subcultured with TrypLE solution.
The new 2-[2-hydroxy-3-(4-substituted-1-piperazinyl)propyl] derivatives were dissolved in DMSO to a concentration of 10 mM and stored at −20 °C. The samples were prepared in four different concentrations of compounds (10 µM, 25 µM, 50 µM, and 100 µM), so the concentration of DMSO for cells was […].
Viability evaluation was performed using the Sulforhodamine B (SRB) dye. The SRB assay was carried out 24 h after seeding. The culture plates were fixed with a cold TCA solution with a final concentration of 10% w/v for 1 h at 4–8 °C. This plate was T0 control. T0 is cell before treatment tested compounds. The supernatant was removed from the culture. The compounds were added and incubated for 48 h at 5% CO2, 95% humidity, and 37 °C. The culture was fixed with a cold TCA solution. The same condition was performed on the T0 plate. […] The absorbance was measured at 540 nm with a Varioskan LUX microplate reader (Thermo Scientific, Waltham, MA, USA).

15-LOX = 15-LOX (Glycine max, UniProt P08170); assay: Lipoxygenase inhibitor screening assay; type: biochemical; details: 15-LO, arachidonic acid substrate; mean (SD)
Chain of 15-LOX (P08170 whole entry): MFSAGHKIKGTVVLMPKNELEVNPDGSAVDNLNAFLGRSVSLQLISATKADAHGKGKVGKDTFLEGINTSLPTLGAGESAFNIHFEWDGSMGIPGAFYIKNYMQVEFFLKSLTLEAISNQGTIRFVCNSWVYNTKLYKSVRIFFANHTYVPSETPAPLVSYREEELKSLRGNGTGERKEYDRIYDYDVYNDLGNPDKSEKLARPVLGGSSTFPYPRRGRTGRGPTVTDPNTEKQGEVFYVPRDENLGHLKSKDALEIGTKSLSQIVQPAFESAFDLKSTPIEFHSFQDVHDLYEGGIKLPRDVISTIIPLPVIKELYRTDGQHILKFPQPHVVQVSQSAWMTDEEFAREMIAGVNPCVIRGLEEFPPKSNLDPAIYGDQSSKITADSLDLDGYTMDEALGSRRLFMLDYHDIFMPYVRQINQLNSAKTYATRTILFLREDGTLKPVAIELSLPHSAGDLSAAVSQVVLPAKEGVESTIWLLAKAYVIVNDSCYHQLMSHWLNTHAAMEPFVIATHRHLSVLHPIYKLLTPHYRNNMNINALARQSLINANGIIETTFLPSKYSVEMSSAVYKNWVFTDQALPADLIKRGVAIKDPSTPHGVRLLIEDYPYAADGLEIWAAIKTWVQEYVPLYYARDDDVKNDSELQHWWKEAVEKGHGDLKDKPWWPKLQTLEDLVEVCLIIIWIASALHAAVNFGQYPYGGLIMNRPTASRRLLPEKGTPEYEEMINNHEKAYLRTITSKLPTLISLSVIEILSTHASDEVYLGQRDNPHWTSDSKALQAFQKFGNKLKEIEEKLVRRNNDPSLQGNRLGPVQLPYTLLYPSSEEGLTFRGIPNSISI
Procedure: The assay detects and measures the hydroperoxides produced in the lipoxygenation reduction using a purified lipoxygenase (LO). Blank wells were prepared that contained 100 μL Assay buffer. The positive control included 10 μL 1x assay buffer and 90 μL 15-LO, but 100% of the Initial activity samples contained 90 μL 15-LO and 10 μL methanol. Samples with test compounds were prepared in triplicate, containing 90 µL of 15-LO and 10 µL of test compound at the assayed concentration of 10 mM. All samples prepared in this way were incubated for 5 min at room temperature. Subsequently, the substrate, i.e., arachidonic acid, was added. The entire test plate was shaken for 10 min. 100 µL of chromogen was added to the samples. The entire plate was shaken for 5 min. The absorbance was read at 490 nm in a VariuScan microplate reader.

[1] = parameters: method as in PMID 10683864; details: "hot plate" test; cited from earlier work
[2] = parameters: method as in PMID 10683864; details: "writhing syndrome" test; cited from earlier work

| IC50 (COX-2) [µM] | COX Selectivity Ratio IC50(COX-2)/IC50(COX-1) (COX-2) | melting point [°C] | Structure (SMILES) | IC50 (NHDF cells) [µM] | Lipoxygenase Inhibition Assay IC50 LOX (15-LOX) | Analgesic activity: acted up to the dose (fraction of LD50) [1] | Analgesic activity: acted up to the dose (fraction of LD50) [2] |
| --- | --- | --- | --- | --- | --- | --- | --- |
| 59.34 ± 0.04 | 0.75 | 135 to 138 | Cc1c2c(c(C)n1-c1ccccc1)C(=O)N(CC(O)CN1CCN(c3cccc(C(F)(F)F)c3)CC1)C2=O (stereo not drawn) [3h, 4,6-dimethyl-5-phenyl-2-[2-hydroxy-3-[4-(m-trifluoromethylphenyl)piperazin-1-yl]propyl]pyrrolo[3,4-c]pyrrole-1,3(2H,5H)-dione] |  |  |  |  |
| 57.93 ± 0.02 | 0.71 |  | Cc1c2c(c(C)n1-c1ccccc1)C(=O)N(CC(O)CN1CCN(c3ncccn3)CC1)C2=O (stereo not drawn) [3i, 4,6-dimethyl-5-phenyl-2-[2-hydroxy-3-(4-pyrimidynylpiperazin-1-yl)propyl]pyrrolo[3,4-c]pyrrole-1,3(2H,5H)-dione] |  |  |  |  |
| 60.28 ± 0.02 | 0.79 | 179 to 181 | Cc1c2c(c(C)n1-c1cccc(Cl)c1)C(=O)N(CC(O)CN1CCN(c3ncccn3)CC1)C2=O (stereo not drawn) [3j, 4,6-dimethyl-5-(3-chlorophenyl)-2-[2-hydroxy-3-(4-pyrimidynylpiperazin-1-yl)propyl]pyrrolo[3,4-c]pyrrole-1,3(2H,5H)-dione] |  |  |  |  |
| 60.83 ± 0.01 | 0.73 | 182 to 184 | CCCCn1c(C)c2c(c1C)C(=O)N(CC(O)CN1CCN(c3ncccn3)CC1)C2=O (stereo not drawn) [3k, 4,6-dimethyl-5-butyl-2-[2-hydroxy-3-(4-pyrimidynyl-1-piperazinyl)propyl]pyrrolo[3,4-c]pyrrole-1,3(2H,5H)-dione] |  |  |  |  |
| 61 ± 0.04 | 0.80 | 136 to 138 | Cc1c2c(c(C)n1-c1ccccc1)C(=O)N(CC(O)CN1CCN(S(C)(=O)=O)CC1)C2=O (stereo not drawn) [3m, 4,6-dimethyl-5-phenyl-2-[2-hydroxy-3-(N-methylsulphonylpiperazin-1-yl)-propyl]pyrrolo[3,4-c]pyrrole-1,3(2H,5H)-dione] |  |  |  |  |
| 60.25 ± 0.07 | 0.71 | 119 to 122 | Cc1c2c(c(C)n1-c1cccc(Cl)c1)C(=O)N(CC(O)CN1CCN(S(C)(=O)=O)CC1)C2=O (stereo not drawn) [3n, 4,6-dimethyl-5-(3-chlorophenyl)-2-[2-hydroxy-3-(N-methylsulphonylpiperazin-1-yl)-propyl]pyrrolo[3,4-c]pyrrole-1,3(2H,5H)-dione] |  |  |  |  |
| 59.42 ± 0.06 | 0.85 | 139 to 141 | CCCCn1c(C)c2c(c1C)C(=O)N(CC(O)CN1CCN(S(C)(=O)=O)CC1)C2=O (stereo not drawn) [3o, 4,6-dimethyl-5-butyl-2-[2-hydroxy-3-(N-methylsulphonylpiperazin-1-yl)-propyl]pyrrolo[3,4-c]pyrrole-1,3(2H,5H)-dione] | 49.47 ± 0.05 |  |  |  |

Continued, compound first:

| Structure (SMILES) | IC50 (COX-2) [µM] | COX Selectivity Ratio IC50(COX-2)/IC50(COX-1) (COX-2) | melting point [°C] | IC50 (NHDF cells) [µM] | Lipoxygenase Inhibition Assay IC50 LOX (15-LOX) | Analgesic activity: acted up to the dose (fraction of LD50) [1] | Analgesic activity: acted up to the dose (fraction of LD50) [2] |
| --- | --- | --- | --- | --- | --- | --- | --- |
| CCCCn1c(C)c2c(c1C)C(=O)N(CC(O)CN1CCN(c3ccc(C)cc3)CC1)C2=O (stereo not drawn) [3a, 4,6-dimethyl-5-butyl-2-[2-hydroxy-3-[4-(p-methylphenyl)piperazin-1-yl]propyl]pyrrolo[3,4-c]pyrrole-1,3(2H,5H)-dione] | 60.16 ± 0.08 | 0.73 | 116 to 118 |  |  |  |  |
| CCCCn1c(C)c2c(c1C)C(=O)N(CC(O)CN1CCN(c3ccc(Br)cc3)CC1)C2=O (stereo not drawn) [3b, 4,6-dimethyl-5-butyl-2-[2-hydroxy-3-[4-(p-bromophenyl)piperazin-1-yl]propyl]pyrrolo[3,4-c]pyrrole-1,3(2H,5H)-dione] | 59.77 ± 0.05 | 0.76 | 180 to 182 |  |  |  |  |
| Cc1c2c(c(C)n1-c1ccccc1)C(=O)N(CC(O)CN1CCN(c3ccc(F)cc3)CC1)C2=O (stereo not drawn) [3c, 4,6-dimethyl-5-phenyl-2-[2-hydroxy-3-[4-(p-fluorophenyl)piperazin-1-yl]propyl]pyrrolo[3,4-c]pyrrole-1,3(2H,5H)-dione] | 60.05 ± 0.03 | 0.76 | 182 to 184 |  |  |  |  |
| Cc1c2c(c(C)n1-c1ccccc1)C(=O)N(CC(O)CN1CCN(c3ccc(F)cc3F)CC1)C2=O (stereo not drawn) [3d, 4,6-dimethyl-5-phenyl-2-[2-hydroxy-3-[4-(2,4-difluorophenyl)-1-piperazinyl]propyl]pyrrolo[3,4-c]pyrrole-1,3(2H,5H)-dione] | 59.7 ± 0.03 | 0.73 | 143 to 145 | 86.55 ± 0.05 |  |  |  |
| CCCCn1c(C)c2c(c1C)C(=O)N(CC(O)CN1CCN(c3ccc(F)cc3F)CC1)C2=O (stereo not drawn) [3e, 4,6-dimethyl-5-butyl-2-[2-hydroxy-3-[4-(2,4-difluorophenyl)piperazin-1-yl]propyl]pyrrolo[3,4-c]pyrrole-1,3(2H,5H)-dione] | 56.43 ± 0.03 | 0.64 | 139 to 141 |  | higher activity against LOX than Zileuton |  |  |
| CCCCn1c(C)c2c(c1C)C(=O)N(CC(O)CN1CCN(c3ccccc3C#N)CC1)C2=O (stereo not drawn) [3f, 4,6-dimethyl-5-butyl-2-[2-hydroxy-3-[4-(o-cyjanophenyl)piperazin-1-yl]propyl]pyrrolo[3,4-c]pyrrole-1,3(2H,5H)-dione] | 60.36 ± 0.06 |  | 154 to 156 |  | higher activity against LOX than Zileuton |  |  |
| CCOc1ccccc1N1CCN(CC(O)CN2C(=O)c3c(c(C)n(-c4cccc(Cl)c4)c3C)C2=O)CC1 (stereo not drawn) [3g, 4,6-dimethyl-5-(3-chlorophenyl)-2-[2-hydroxy-3-[4-(o-ethoxyphenyl)piperazin-1-yl]propyl]pyrrolo[3,4-c]pyrrole-1,3(2H,5H)-dione] | 60.55 ± 0.09 | 0.70 | 129 to 131 |  |  |  |  |
| CCCCn1c(C)c2c(c1C)C(=O)N(CC(O)CN1CCN(c3ccccc3)CC1)C2=O (stereo not drawn) [Compound I] |  |  |  |  |  | 1/20 | 1/80 |
| Cc1c2c(c(C)n1-c1ccccc1)C(=O)N(CC(O)CN1CCN(c3ccccc3)CC1)C2=O (stereo not drawn) [II] |  |  |  |  |  | 1/20 | 1/40 |
